{
  "source": "DBAASP",
  "experiment_in_all_cases": "≥ marks a high value that may be exact or a test limit, other limits are often not marked, values filed in µg/mL are converted to µM",
  "key": {"[1]": {"test_system": "Candida tropicalis CCARM 14019"}, "[2]": {"test_system": "Micrococcus luteus CIP 5345"}, "[3]": {"test_system": "Bacillus megaterium CIP 6620"}, "[4]": {"test_system": "Staphylococcus aureus SG511"}, "[5]": {"test_system": "Corynebacterium stationis CIP 101282"}, "Escherichia coli SBS 363": {"test_system": "Escherichia coli SBS 363"}, "[6]": {"test_system": "Microbacterium maritypicum CIP 105733T"}, "[7]": {"test_system": "Vibrio splendidus CIP 107715"}, "[8]": {"test_system": "Staphylococcus haemolyticus"}, "[9]": {"test_system": "Vibrio nigripulchritudo CIP 103195"}, "[10]": {"test_system": "Staphylococcus aureus CIP 103428"}, "Delftia acidovorans": {"test_system": "Delftia acidovorans"}, "[11]": {"test_system": "Elizabethkingia meningoseptica"}, "[12]": {"test_system": "Stenotrophomonas maltophilia"}, "[13]": {"test_system": "Staphylococcus aureus ATCC 6538"}, "[14]": {"test_system": "Pseudomonas aeruginosa ATCC 19660"}, "[15]": {"test_system": "Pseudomonas aeruginosa PAER1"}, "Staphylococcus aureus 31": {"test_system": "Staphylococcus aureus 31"}, "[16]": {"test_system": "Pseudomonas aeruginosa 6294"}, "[17]": {"test_system": "Pseudomonas aeruginosa 6206"}, "Burkholderia cepacia": {"test_system": "Burkholderia cepacia"}, "Staphylococcus aureus 38": {"test_system": "Staphylococcus aureus 38"}, "[18]": {"test_system": "Cryptococcus neoformans ATCC 32264"}, "[19]": {"test_system": "Staphylococcus aureus ATCC 29213"}, "[20]": {"test_system": "Staphylococcus aureus ATCC 33591"}, "[21]": {"test_system": "Candida albicans ATCC 10231"}, "Yersinia enterocolitica": {"test_system": "Yersinia enterocolitica"}, "Salmonella sp.": {"test_system": "Salmonella sp."}, "[22]": {"test_system": "Escherichia coli ATCC 25922"}, "Escherichia coli": {"test_system": "Escherichia coli"}, "[23]": {"test_system": "Pseudomonas aeruginosa ATCC 27853"}, "[24]": {"test_system": "Salmonella enterica subsp. enterica serovar Enteritidis"}, "[25]": {"test_system": "Staphylococcus aureus ATCC 43300"}},
  "note": "Values joined by “and” are separate entries in the source; they are usually repeats but may differ in a detail not shown here. Equal values may be shown once.",
  "data": [
    {"smiles": "CC(C)C[C@H](NC(=O)CNC(=O)[C@H](Cc1cnc[nH]1)NC(=O)[C@H](Cc1cnc[nH]1)NC(=O)[C@H](CCCN=C(N)N)NC(=O)[C@H](CCCCN)NC(=O)[C@H](C)N)C(=O)N[C@@H](CC(N)=O)C(=O)N[C@@H](CS)C(=O)N[C@@H](C)C(=O)N[C@@H](CCCCN)C(=O)N[C@@H](Cc1ccccc1)C(=O)N[C@@H](Cc1cnc[nH]1)C(N)=O", "note": "[AKRHHGLNCAKFH]", "values": [
      {"measurement": "MIC", "setting": "[1]", "result": "0.466 µM and 0.931 µM"}
    ]},
    {"smiles": "CC[C@H](C)[C@H](NC(=O)[C@@H]1CCCN1C(=O)CN)C(=O)N[C@@H](CCCN=C(N)N)C(=O)N[C@@H](CCCN=C(N)N)C(=O)N1CCC[C@H]1C(=O)N[C@@H](CCC(=O)O)C(=O)N1CCC[C@H]1C(=O)N[C@@H](CCCN=C(N)N)C(=O)N1CCC[C@H]1C(=O)N[C@@H](CCCN=C(N)N)C(=O)N1CCC[C@H]1C(=O)N[C@@H](CCC(=O)O)C(=O)O", "note": "[GPIRRPEPRPRPE]", "values": [
      {"measurement": "MIC", "setting": "[2]", "result": "≥ 80", "unit": "µM"},
      {"measurement": "MIC", "setting": "[3]", "result": 20, "unit": "µM"},
      {"measurement": "MIC", "setting": "[4]", "result": 20, "unit": "µM"},
      {"measurement": "MIC", "setting": "[5]", "result": 20, "unit": "µM"},
      {"measurement": "MIC", "setting": "Escherichia coli SBS 363", "result": "≥ 80", "unit": "µM"},
      {"measurement": "MIC", "setting": "[6]", "result": 20, "unit": "µM"},
      {"measurement": "MIC", "setting": "[7]", "result": "≥ 40", "unit": "µM"},
      {"measurement": "MIC", "setting": "[8]", "result": 20, "unit": "µM"},
      {"measurement": "MIC", "setting": "[9]", "result": "≥ 40", "unit": "µM"},
      {"measurement": "MIC", "setting": "[10]", "result": 20, "unit": "µM"}
    ]},
    {"smiles": "NCCCC[C@H](NC(=O)[C@H](CCCN=C(N)N)NC(=O)[C@H](CCCCN)NC(=O)[C@H](CC(N)=O)NC(=O)[C@@H](N)CCCCN)C(=O)N[C@@H](CCCN=C(N)N)C(=O)N[C@@H](CCCN=C(N)N)C(=O)N[C@@H](CCCN=C(N)N)C(=O)N[C@@H](CCCN=C(N)N)C(=O)N[C@@H](CCCN=C(N)N)C(=O)N[C@@H](CCCN=C(N)N)C(=O)NCC(=O)NCC(=O)N[C@@H](CCCN=C(N)N)C(=O)N[C@@H](CCCN=C(N)N)C(=O)N[C@@H](CCCN=C(N)N)C(=O)N[C@@H](CCCN=C(N)N)C(=O)O", "note": "[KNKRKRRRRRRGGRRRR]", "values": [
      {"measurement": "MIC", "setting": "Delftia acidovorans", "result": "≥ 426", "unit": "µM"},
      {"measurement": "MIC", "setting": "[11]", "result": "≥ 213", "unit": "µM"},
      {"measurement": "MIC", "setting": "[12]", "result": 13.3, "unit": "µM"},
      {"measurement": "MIC", "setting": "[13]", "result": 53.2, "unit": "µM"},
      {"measurement": "MIC", "setting": "[14]", "result": 26.6, "unit": "µM"},
      {"measurement": "MIC", "setting": "[15]", "result": "≥ 106", "unit": "µM"},
      {"measurement": "MIC", "setting": "Staphylococcus aureus 31", "result": "≥ 106", "unit": "µM"},
      {"measurement": "MIC", "setting": "[16]", "result": "≥ 106", "unit": "µM"},
      {"measurement": "MIC", "setting": "[17]", "result": 26.6, "unit": "µM"},
      {"measurement": "MIC", "setting": "Burkholderia cepacia", "result": "≥ 426", "unit": "µM"},
      {"measurement": "MIC", "setting": "Staphylococcus aureus 38", "result": "≥ 106", "unit": "µM"}
    ]},
    {"smiles": "CC[C@H](C)[C@H](NC(=O)[C@H](CCCCN)NC(=O)[C@@H](NC(=O)[C@H](CCC(N)=O)NC(=O)[C@@H](N)CCCCN)[C@@H](C)CC)C(=O)N[C@@H](Cc1c[nH]c2ccccc12)C(=O)N[C@@H](Cc1ccccc1)C(=O)N[C@@H](CCC(N)=O)C(=O)N[C@@H](CC(N)=O)C(=O)N[C@@H](CCCCN)C(=O)N[C@@H](CCCCN)C(=O)N[C@@H](CCSC)C(=O)N[C@@H](CCCCN)C(=O)N[C@@H](Cc1c[nH]c2ccccc12)C(=O)N[C@@H](CCCCN)C(=O)N[C@@H](CCCCN)C(N)=O", "note": "[KQIKIWFQNKKMKWKK]", "values": [
      {"measurement": "MIC", "setting": "[18]", "result": "≥ 50", "unit": "µM"},
      {"measurement": "MIC", "setting": "[19]", "result": "> 50", "unit": "µM"},
      {"measurement": "MIC", "setting": "[20]", "result": "≥ 256", "unit": "µM"},
      {"measurement": "MIC", "setting": "[21]", "result": 50, "unit": "µM"},
      {"measurement": "MIC", "setting": "Yersinia enterocolitica", "result": "≥ 50", "unit": "µM"},
      {"measurement": "MIC", "setting": "Salmonella sp.", "result": "≥ 50", "unit": "µM"},
      {"measurement": "MIC", "setting": "[22]", "result": "64 µM and 50 µM"},
      {"measurement": "MIC", "setting": "Escherichia coli", "result": 17.7, "unit": "µM"},
      {"measurement": "MIC", "setting": "[23]", "result": "> 50", "unit": "µM"},
      {"measurement": "MIC", "setting": "[24]", "result": 25, "unit": "µM"},
      {"measurement": "MIC", "setting": "[25]", "result": "> 50", "unit": "µM"}
    ]}
  ]
}
